According to paper PMC12090182, “Repurposing of the RIPK1-Selective Benzo[1,4]oxazepin-4-one Scaffold for the Development of a Type III LIMK1/2 Inhibitor” (ACS Chemical Biology, 2025):

How the values were obtained:
Assay in all cases: scanMAX KINOMEscan (Eurofins)
Type in all cases: binding
ACVR2B = ACVR2B (Homo sapiens, UniProt Q13705); settings: 1000 nM, read-out: Percent Control
Description: (§1) Supplement cb5c00097_si_002.xlsx, sheet "Table S6 (Eurofins Selectivity)" | column: Percent Control

ADCK3 = ADCK3 (Homo sapiens, UniProt Q8NI60); settings: read-out: Percent Control
Description: as §1

AXL = AXL (Homo sapiens, UniProt P30530); settings: read-out: Percent Control
Description: as §1

BIKE = BIKE (Homo sapiens, UniProt Q9NSY1); settings: 1000 nM, read-out: Percent Control
Description: as §1

CASK = CASK (Homo sapiens, UniProt O14936); settings: read-out: Percent Control
Description: as §1

CDK4-cyclinD3 = CDK4-cyclinD3 (Homo sapiens, UniProt P11802); settings: 1000 nM, read-out: Percent Control
Description: as §1

CDKL1 = CDKL1 (Homo sapiens, UniProt Q00532); settings: read-out: Percent Control
Description: as §1

CHEK1 = CHEK1 (Homo sapiens, UniProt O14757); settings: read-out: Percent Control
Description: as §1

CSNK1G3 = CSNK1G3 (Homo sapiens, UniProt Q9Y6M4); settings: read-out: Percent Control
Description: as §1

ERN1 = ERN1 (Homo sapiens, UniProt O75460); settings: read-out: Percent Control
Description: as §1

FER = FER (Homo sapiens, UniProt P16591); settings: 1000 nM, read-out: Percent Control
Description: as §1

FLT3-autoinhibited = FLT3-autoinhibited (Homo sapiens, UniProt P36888); settings: 1000 nM, read-out: Percent Control
Description: as §1

GAK = GAK (Homo sapiens, UniProt O14976); settings: read-out: Percent Control
Description: as §1

HIPK2 = HIPK2 (Homo sapiens, UniProt Q9H2X6); settings: 1000 nM, read-out: Percent Control
Description: as §1

HIPK4 = HIPK4 (Homo sapiens, UniProt Q8NE63); settings: 1000 nM, read-out: Percent Control
Description: as §1

IKK-epsilon = IKK-epsilon (Homo sapiens, UniProt Q14164); settings: 1000 nM, read-out: Percent Control
Description: as §1

IRAK4 = IRAK4 (Homo sapiens, UniProt Q9NWZ3); settings: compound concentration 100 nM; Entrez IRAK4; read-out: Percent Control
Description: as §1

LATS2 = LATS2 (Homo sapiens, UniProt Q9NRM7); settings: 1000 nM, read-out: Percent Control
Description: as §1

LCK = LCK (Homo sapiens, UniProt P06239); settings: 1000 nM, read-out: Percent Control
Description: as §1

LKB1 = LKB1 (Homo sapiens, UniProt Q15831); settings: 1000 nM, read-out: Percent Control
Description: as §1

MAPKAPK2 = MAPKAPK2 (Homo sapiens, UniProt P49137); settings: 1000 nM, read-out: Percent Control
Description: as §1

MEK6 = MEK6 (Homo sapiens, UniProt P52564); settings: compound concentration 100 nM; Entrez MAP2K6; read-out: Percent Control
Description: as §1

MLK1 = MLK1 (Homo sapiens, UniProt P80192); settings: compound concentration 100 nM; Entrez MAP3K9; read-out: Percent Control
Description: as §1

MUSK = MUSK (Homo sapiens, UniProt O15146); settings: 1000 nM, read-out: Percent Control
Description: as §1

NIK = NIK (Homo sapiens, UniProt Q99558); settings: compound concentration 100 nM; Entrez MAP3K14; read-out: Percent Control
Description: as §1

NIM1 = NIM1 (Homo sapiens, UniProt Q8IY84); settings: compound concentration 100 nM; Entrez MGC42105; read-out: Percent Control
Description: as §1

PAK2 = PAK2 (Homo sapiens, UniProt Q13177); settings: 1000 nM, read-out: Percent Control
Description: as §1

PIK3CB = PIK3CB (Homo sapiens, UniProt P42338); settings: 1000 nM, read-out: Percent Control
Description: as §1

PRKCQ = PRKCQ (Homo sapiens, UniProt Q04759); settings: 1000 nM, read-out: Percent Control
Description: as §1

PRKG1 = PRKG1 (Homo sapiens, UniProt Q13976); settings: 1000 nM, read-out: Percent Control
Description: as §1

PRKR = PRKR (Homo sapiens, UniProt P19525); settings: compound concentration 100 nM; Entrez EIF2AK2; read-out: Percent Control
Description: as §1

QSK = QSK (Homo sapiens, UniProt Q9Y2K2); settings: read-out: Percent Control
Description: as §1

TNK1 = TNK1 (Homo sapiens, UniProt Q13470); settings: 1000 nM, read-out: Percent Control
Description: as §1

TRKC = TRKC (Homo sapiens, UniProt Q16288); settings: 1000 nM, read-out: Percent Control
Description: as §1

TRPM6 = TRPM6 (Homo sapiens, UniProt Q9BX84); settings: compound concentration 100 nM; Entrez TRPM6; read-out: Percent Control
Description: as §1

p38-gamma = p38-gamma (Homo sapiens, UniProt P53778); settings: 1000 nM, read-out: Percent Control
Description: as §1

Sequence of GAK (O14976 whole entry): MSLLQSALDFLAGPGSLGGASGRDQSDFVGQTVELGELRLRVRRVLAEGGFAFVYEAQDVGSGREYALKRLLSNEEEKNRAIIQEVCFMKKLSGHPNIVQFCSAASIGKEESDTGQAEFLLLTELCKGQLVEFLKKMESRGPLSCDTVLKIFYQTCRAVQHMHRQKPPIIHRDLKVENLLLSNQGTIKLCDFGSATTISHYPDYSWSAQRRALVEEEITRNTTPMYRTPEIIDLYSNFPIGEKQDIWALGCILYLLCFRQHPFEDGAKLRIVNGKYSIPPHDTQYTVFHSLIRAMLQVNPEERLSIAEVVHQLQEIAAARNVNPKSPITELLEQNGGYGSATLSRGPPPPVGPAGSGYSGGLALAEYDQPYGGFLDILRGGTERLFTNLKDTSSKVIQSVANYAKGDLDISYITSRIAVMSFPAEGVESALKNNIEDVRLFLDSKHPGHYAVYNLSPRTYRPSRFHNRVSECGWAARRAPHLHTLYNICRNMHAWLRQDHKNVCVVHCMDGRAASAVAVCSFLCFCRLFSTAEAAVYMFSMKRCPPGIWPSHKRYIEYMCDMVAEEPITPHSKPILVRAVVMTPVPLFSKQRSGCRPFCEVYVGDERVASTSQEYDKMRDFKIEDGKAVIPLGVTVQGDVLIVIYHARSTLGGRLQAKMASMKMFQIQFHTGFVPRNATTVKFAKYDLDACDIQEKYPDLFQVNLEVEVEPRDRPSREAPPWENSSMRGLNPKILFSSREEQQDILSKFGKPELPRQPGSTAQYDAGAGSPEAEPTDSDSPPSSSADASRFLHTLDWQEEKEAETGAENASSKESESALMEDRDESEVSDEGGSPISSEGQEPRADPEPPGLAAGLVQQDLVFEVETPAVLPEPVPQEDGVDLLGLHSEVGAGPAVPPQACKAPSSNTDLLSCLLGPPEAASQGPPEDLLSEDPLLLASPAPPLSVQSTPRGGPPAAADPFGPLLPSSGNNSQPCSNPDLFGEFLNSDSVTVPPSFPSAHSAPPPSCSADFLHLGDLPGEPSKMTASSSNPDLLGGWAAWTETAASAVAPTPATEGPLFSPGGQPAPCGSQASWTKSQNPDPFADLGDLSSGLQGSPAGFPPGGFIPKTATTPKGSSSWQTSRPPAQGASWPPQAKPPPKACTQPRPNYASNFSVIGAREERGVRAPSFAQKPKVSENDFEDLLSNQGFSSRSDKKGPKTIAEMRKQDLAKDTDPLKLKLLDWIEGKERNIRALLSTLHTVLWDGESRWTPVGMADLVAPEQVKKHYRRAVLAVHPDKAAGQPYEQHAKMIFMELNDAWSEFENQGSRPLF
Sequence of CDKL1 (Q00532 whole entry): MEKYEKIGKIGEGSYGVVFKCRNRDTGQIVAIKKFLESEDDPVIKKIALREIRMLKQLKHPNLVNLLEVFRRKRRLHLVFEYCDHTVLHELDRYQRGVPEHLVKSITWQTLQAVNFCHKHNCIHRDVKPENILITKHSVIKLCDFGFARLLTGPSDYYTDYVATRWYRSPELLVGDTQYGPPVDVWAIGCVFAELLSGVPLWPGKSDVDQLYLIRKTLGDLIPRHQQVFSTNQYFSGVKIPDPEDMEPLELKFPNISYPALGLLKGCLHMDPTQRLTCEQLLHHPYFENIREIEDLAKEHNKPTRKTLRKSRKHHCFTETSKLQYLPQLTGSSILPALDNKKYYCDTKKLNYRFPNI
Sequence of ADCK3 (Q8NI60 163-647): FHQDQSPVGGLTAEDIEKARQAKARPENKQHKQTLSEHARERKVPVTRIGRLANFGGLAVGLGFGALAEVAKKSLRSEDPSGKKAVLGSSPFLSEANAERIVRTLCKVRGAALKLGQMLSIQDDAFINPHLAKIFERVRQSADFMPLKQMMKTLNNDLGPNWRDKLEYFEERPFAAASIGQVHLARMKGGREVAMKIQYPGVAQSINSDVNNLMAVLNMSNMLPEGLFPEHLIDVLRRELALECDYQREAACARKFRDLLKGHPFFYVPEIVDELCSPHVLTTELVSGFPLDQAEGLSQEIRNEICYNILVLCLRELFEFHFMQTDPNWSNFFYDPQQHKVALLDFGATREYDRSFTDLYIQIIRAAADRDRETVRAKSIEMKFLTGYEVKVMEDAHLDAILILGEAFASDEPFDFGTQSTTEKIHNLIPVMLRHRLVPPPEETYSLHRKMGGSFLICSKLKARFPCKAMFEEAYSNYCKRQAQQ
Sequence of CSNK1G3 (Q9Y6M4 whole entry): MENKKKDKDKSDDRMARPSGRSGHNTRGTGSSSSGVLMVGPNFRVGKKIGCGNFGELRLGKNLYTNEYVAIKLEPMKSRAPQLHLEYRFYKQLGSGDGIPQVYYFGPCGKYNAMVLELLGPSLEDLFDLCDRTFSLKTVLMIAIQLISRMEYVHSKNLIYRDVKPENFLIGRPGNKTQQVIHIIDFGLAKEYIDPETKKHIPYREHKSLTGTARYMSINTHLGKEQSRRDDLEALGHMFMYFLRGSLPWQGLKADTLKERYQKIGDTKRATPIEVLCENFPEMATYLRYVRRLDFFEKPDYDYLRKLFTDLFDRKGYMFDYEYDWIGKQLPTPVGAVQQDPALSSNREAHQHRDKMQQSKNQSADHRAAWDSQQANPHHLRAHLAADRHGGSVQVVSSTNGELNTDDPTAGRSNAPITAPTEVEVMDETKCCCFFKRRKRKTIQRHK
Sequence of QSK (Q9Y2K2 whole entry): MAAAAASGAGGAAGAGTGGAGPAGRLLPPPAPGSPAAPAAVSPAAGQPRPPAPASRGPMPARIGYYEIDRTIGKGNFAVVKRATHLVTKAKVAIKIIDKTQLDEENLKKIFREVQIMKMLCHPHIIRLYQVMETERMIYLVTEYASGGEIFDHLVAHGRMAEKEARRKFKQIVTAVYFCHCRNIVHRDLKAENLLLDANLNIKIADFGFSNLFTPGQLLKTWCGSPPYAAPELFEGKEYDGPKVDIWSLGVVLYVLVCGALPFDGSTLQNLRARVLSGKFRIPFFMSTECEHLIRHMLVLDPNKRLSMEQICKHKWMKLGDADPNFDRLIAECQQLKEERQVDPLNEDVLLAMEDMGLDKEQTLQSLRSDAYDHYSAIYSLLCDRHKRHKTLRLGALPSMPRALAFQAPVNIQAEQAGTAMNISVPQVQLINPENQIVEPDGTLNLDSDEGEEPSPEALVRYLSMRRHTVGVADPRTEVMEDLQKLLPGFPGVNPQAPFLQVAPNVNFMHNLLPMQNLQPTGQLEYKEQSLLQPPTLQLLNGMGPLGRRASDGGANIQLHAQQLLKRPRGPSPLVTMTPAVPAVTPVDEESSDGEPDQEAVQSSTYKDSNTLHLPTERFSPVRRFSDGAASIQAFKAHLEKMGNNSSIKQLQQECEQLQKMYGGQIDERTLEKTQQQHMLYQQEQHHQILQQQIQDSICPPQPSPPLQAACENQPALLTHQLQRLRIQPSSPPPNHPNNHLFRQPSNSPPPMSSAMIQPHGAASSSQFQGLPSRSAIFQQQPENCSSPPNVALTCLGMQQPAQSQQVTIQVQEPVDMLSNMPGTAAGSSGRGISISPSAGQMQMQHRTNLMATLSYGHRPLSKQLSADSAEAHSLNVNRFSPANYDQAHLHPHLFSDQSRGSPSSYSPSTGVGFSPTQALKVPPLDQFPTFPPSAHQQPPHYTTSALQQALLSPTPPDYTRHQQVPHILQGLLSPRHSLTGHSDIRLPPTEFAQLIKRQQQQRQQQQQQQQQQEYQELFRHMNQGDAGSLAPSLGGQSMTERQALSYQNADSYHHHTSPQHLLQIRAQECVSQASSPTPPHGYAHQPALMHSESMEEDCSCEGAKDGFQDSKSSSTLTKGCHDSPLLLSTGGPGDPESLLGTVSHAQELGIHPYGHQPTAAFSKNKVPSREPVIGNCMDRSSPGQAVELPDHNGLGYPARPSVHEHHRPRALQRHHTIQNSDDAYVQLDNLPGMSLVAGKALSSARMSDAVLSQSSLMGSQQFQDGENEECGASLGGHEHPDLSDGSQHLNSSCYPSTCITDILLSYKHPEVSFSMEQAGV
Sequence of AXL (P30530 26-894): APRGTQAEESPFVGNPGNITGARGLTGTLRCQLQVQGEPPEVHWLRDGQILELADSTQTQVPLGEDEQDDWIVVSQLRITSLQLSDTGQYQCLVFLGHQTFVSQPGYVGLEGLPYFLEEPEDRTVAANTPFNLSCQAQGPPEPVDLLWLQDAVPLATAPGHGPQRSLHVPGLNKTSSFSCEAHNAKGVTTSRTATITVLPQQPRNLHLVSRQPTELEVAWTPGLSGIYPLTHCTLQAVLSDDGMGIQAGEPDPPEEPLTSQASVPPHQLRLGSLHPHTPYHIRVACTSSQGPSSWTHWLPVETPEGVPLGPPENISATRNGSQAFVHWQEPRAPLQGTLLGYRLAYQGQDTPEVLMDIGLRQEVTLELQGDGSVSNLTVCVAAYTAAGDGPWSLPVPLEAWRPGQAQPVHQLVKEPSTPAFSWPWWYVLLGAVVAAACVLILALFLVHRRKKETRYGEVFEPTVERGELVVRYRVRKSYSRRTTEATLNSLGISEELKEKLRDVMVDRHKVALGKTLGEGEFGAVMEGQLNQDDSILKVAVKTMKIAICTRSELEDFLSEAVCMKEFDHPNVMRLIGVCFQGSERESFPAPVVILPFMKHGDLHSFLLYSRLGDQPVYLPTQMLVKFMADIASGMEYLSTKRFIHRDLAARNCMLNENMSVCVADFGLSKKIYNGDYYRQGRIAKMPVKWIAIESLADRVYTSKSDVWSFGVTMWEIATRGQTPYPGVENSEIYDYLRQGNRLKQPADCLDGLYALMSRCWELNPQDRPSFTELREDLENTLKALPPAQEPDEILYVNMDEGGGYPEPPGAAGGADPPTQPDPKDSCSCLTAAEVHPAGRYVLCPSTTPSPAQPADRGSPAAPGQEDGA

## CN1C(=O)[C@@H](N2CCc3c(nn(Cc4ccccc4)c3C(N)=O)C2=O)COc2cc(Cl)ccc21 [Compound 10, (S)-2-benzyl-6-(8-chloro-5-methyl-4-oxo-2,3,4,5-tetrahydrobenzo[b][1,4]oxazepin-3-yl)-7-oxo-4,5,6,7-tetrahydro-2H-pyrazolo[3,4-c]pyridine-3-carboxamide]
ACVR2B
  remaining binding at 1 µM: 94%
ADCK3; 1000 nM
  remaining binding at 1 µM: 100%
ADCK3; compound concentration 100 nM, Entrez CABC1
  remaining binding at 0.1 µM: 100%
AXL; 1000 nM
  remaining binding at 1 µM: 100%
AXL; compound concentration 100 nM, Entrez AXL
  remaining binding at 0.1 µM: 95%
BIKE
  remaining binding at 1 µM: 82%
CASK; 1000 nM
  remaining binding at 1 µM: 100%
CASK; compound concentration 100 nM, Entrez CASK
  remaining binding at 0.1 µM: 80%
CDK4-cyclinD3
  remaining binding at 1 µM: 95%
CDKL1; 1000 nM
  remaining binding at 1 µM: 99%
CDKL1; compound concentration 100 nM, Entrez CDKL1
  remaining binding at 0.1 µM: 96%
CHEK1; 1000 nM
  remaining binding at 1 µM: 100%
CHEK1; compound concentration 100 nM, Entrez CHEK1
  remaining binding at 0.1 µM: 86%
CSNK1G3; 1000 nM
  remaining binding at 1 µM: 100%
CSNK1G3; compound concentration 100 nM, Entrez CSNK1G3
  remaining binding at 0.1 µM: 98%
ERN1; 1000 nM
  remaining binding at 1 µM: 100%
ERN1; compound concentration 100 nM, Entrez ERN1
  remaining binding at 0.1 µM: 100%
FER
  remaining binding at 1 µM: 90%
FLT3-autoinhibited
  remaining binding at 1 µM: 94%
GAK; 1000 nM
  remaining binding at 1 µM: 100%
GAK; compound concentration 100 nM, Entrez GAK
  remaining binding at 0.1 µM: 87%
HIPK2
  remaining binding at 1 µM: 81%
HIPK4
  remaining binding at 1 µM: 87%
IKK-epsilon
  remaining binding at 1 µM: 75%
IRAK4
  remaining binding at 0.1 µM: 100%
LATS2
  remaining binding at 1 µM: 69%
LCK
  remaining binding at 1 µM: 82%
LKB1
  remaining binding at 1 µM: 88%
MAPKAPK2
  remaining binding at 1 µM: 64%
MEK6
  remaining binding at 0.1 µM: 88%
MLK1
  remaining binding at 0.1 µM: 89%
MUSK
  remaining binding at 1 µM: 92%
NIK
  remaining binding at 0.1 µM: 80%
NIM1
  remaining binding at 0.1 µM: 99%
PAK2
  remaining binding at 1 µM: 67%
PIK3CB
  remaining binding at 1 µM: 88%
PRKCQ
  remaining binding at 1 µM: 91%
PRKG1
  remaining binding at 1 µM: 91%
PRKR
  remaining binding at 0.1 µM: 71%
QSK; 1000 nM
  remaining binding at 1 µM: 98%
QSK; compound concentration 100 nM, Entrez KIAA0999
  remaining binding at 0.1 µM: 90%
TNK1
  remaining binding at 1 µM: 77%
TRKC
  remaining binding at 1 µM: 64%
TRPM6
  remaining binding at 0.1 µM: 100%
p38-gamma
  remaining binding at 1 µM: 70%
